Experimental data: patent US12383533B2 (Frost Biologic, Inc., priority 2014, dated 2025)

Experiments:
Assay type in all cases: cell-based
A2780 cells = test: Cell Viability Assay (ATPlite 1step), A2780; settings: Homo sapiens, 72 hours; for percent inhibition of cell viability at 4 µM: A2780, 4 uM compound, read-out: Cell Viability % inhibition A2780 (4 uM Cpd); for percent inhibition of cell viability at 20 µM: A2780, 20 uM compound, read-out: Cell Viability % inhibition A2780 (20 uM Cpd)
Procedure: (§1) Cell Viability Assay Protocol
(§2) Cells were trypsinized, counted, and re-seeded into a 384-well tissue culture plate at 1000 cells per well in […] media. Cells were incubated at 37° C. in an atmosphere of 5% CO2 for 24 hours. Experimental compounds, initially dissolved in DMSO and diluted further in media were added to the wells and incubated for 72 hours. Cell viability was measured using the ATPlite 1step Luminescence Detection Assay system (Perkin Elmer) as described in the Assay kit instructions.
(§3) Cell Culture Lines and Media: (1) A2780 cells were cultured in RPMI media with 10% FBS and 1% antibiotics. Cells were typically split every 3-5 days at a 1:10 dilution; (2) PC3 cells were cultured in RPMI media with 10% FBS and 1% antibiotics. Cells were typically split every 3-5 days at a 1:4 dilution; (3) MCF-7 cells were grown in K-12F media with 10% FBS and 1% antibiotics. Cells were typically split every 3-5 days at a 1:10 dilution.

PC3 cells = test: Cell Viability Assay (ATPlite 1step), PC3; settings: Homo sapiens, PC-3, 72 hours; for percent inhibition of cell viability at 4 µM: PC3, 4 uM compound, read-out: Cell Viability % inhibition PC3 (4 uM Cpd); for percent inhibition of cell viability at 20 µM: PC3, 20 uM compound, read-out: Cell Viability % inhibition PC3 (20 uM Cpd)
Procedure: as §1, §2, §3

MCF-7 cells = test: Cell Viability Assay (ATPlite 1step), MCF-7; settings: Homo sapiens, MCF7, 72 hours; for percent inhibition of cell viability at 4 µM: MCF-7, 4 uM compound, read-out: Cell Viability % inhibition MCF-7 (4 uM Cpd); for percent inhibition of cell viability at 20 µM: MCF-7, 20 uM compound, read-out: Cell Viability % inhibition MCF-7 (20 uM Cpd)
Procedure: as §1, §2, §3

Cc1ncc(C(=O)Nc2ccc(-c3ccccc3)cn2)cn1 [Compound 8, 2-methyl-N-(5-phenylpyridin-2-yl)pyrimidine-5-carboxamide]
percent inhibition of cell viability at 4 µM (A2780 cells): 89.8% | percent inhibition of cell viability at 20 µM (A2780 cells): 90.8% | percent inhibition of cell viability at 4 µM (PC3 cells): 71.6% | percent inhibition of cell viability at 20 µM (PC3 cells): 71.7% | percent inhibition of cell viability at 4 µM (MCF-7 cells): 68.7% | percent inhibition of cell viability at 20 µM (MCF-7 cells): 74.5%

O=C(Nc1ccc(-c2ccoc2)cn1)c1cncnc1 [Compound 19, N-[5-(furan-3-yl)pyridin-2-yl]pyrimidine-5-carboxamide]
percent inhibition of cell viability at 4 µM (A2780 cells): 83.2% | percent inhibition of cell viability at 20 µM (A2780 cells): 91.8% | percent inhibition of cell viability at 4 µM (PC3 cells): 62.2% | percent inhibition of cell viability at 20 µM (PC3 cells): 75.2% | percent inhibition of cell viability at 4 µM (MCF-7 cells): 56.4% | percent inhibition of cell viability at 20 µM (MCF-7 cells): 69.6%

Cc1ncc(C(=O)Nc2ncc(-c3cc(Cl)cc(N4CCNCC4)c3)cc2F)cn1 [Compound 54, N-{5-[3-chloro-5-(piperazin-1-yl)phenyl]-3-Fluoropyridin-2-yl}-2-methylpyrimidine-5-carboxamide]
percent inhibition of cell viability at 4 µM (A2780 cells): -6.4% | percent inhibition of cell viability at 20 µM (A2780 cells): 64.6% | percent inhibition of cell viability at 4 µM (PC3 cells): 0.2% | percent inhibition of cell viability at 20 µM (PC3 cells): 34.8% | percent inhibition of cell viability at 4 µM (MCF-7 cells): 23.8% | percent inhibition of cell viability at 20 µM (MCF-7 cells): 42.6%

Nc1ncc(C(=O)Nc2ccc(-c3ccccc3)cn2)cn1 [Compound 9, 2-amino-N-(5-phenylpyridin-2-yl)pyrimidine-5-carboxamide]
percent inhibition of cell viability at 4 µM (A2780 cells): 92.5% | percent inhibition of cell viability at 20 µM (A2780 cells): 90.6% | percent inhibition of cell viability at 4 µM (PC3 cells): 70.7% | percent inhibition of cell viability at 20 µM (PC3 cells): 76.7% | percent inhibition of cell viability at 4 µM (MCF-7 cells): 70.9% | percent inhibition of cell viability at 20 µM (MCF-7 cells): 75.5%

O=C(Nc1ccc(-c2ccccn2)cn1)c1cncnc1 [Compound 15, N-(3,2′-bipyridin-6-yl)pyrimidine-5-carboxamide]
percent inhibition of cell viability at 4 µM (A2780 cells): 68.8% | percent inhibition of cell viability at 20 µM (A2780 cells): 73.4% | percent inhibition of cell viability at 4 µM (PC3 cells): 40.8% | percent inhibition of cell viability at 20 µM (PC3 cells): 48.2% | percent inhibition of cell viability at 4 µM (MCF-7 cells): 34.5% | percent inhibition of cell viability at 20 µM (MCF-7 cells): 25.6%

Cc1ncc(C(=O)Nc2ccc(-c3cc(NC4CC4)cc(N4CCN(C)CC4)c3)cn2)cn1 [Compound 51, N-{5-[3-cycopropylamino-5-(4-methylpiperazin-1-yl)phenyl]pyridin-2-yl}-2-methylpyrimidine-5-carboxamide]
percent inhibition of cell viability at 4 µM (A2780 cells): 6.8% | percent inhibition of cell viability at 20 µM (A2780 cells): 76% | percent inhibition of cell viability at 4 µM (PC3 cells): 17.3% | percent inhibition of cell viability at 20 µM (PC3 cells): 65.7% | percent inhibition of cell viability at 4 µM (MCF-7 cells): 22.9% | percent inhibition of cell viability at 20 µM (MCF-7 cells): 49.5%

Cc1ncc(C(=O)Nc2ccc(-c3cc(C4CC4)cc(N4CCN(C)CC4)c3)cn2)cn1 [Compound 53]
percent inhibition of cell viability at 4 µM (A2780 cells): 15.1% | percent inhibition of cell viability at 20 µM (A2780 cells): 74.8% | percent inhibition of cell viability at 4 µM (PC3 cells): 12.3% | percent inhibition of cell viability at 20 µM (PC3 cells): 67.1% | percent inhibition of cell viability at 4 µM (MCF-7 cells): 11.3% | percent inhibition of cell viability at 20 µM (MCF-7 cells): 39.6%

Cc1ncc(C(=O)Nc2ccc(-c3csc(C)c3)cn2)cn1 [Compound 62, 2-methyl-N-[5-(5-methylthiophen-3-yl)pyridin-2-yl]pyrimidine-5-carboxamide]
percent inhibition of cell viability at 4 µM (A2780 cells): 85.2% | percent inhibition of cell viability at 20 µM (A2780 cells): 89.9% | percent inhibition of cell viability at 4 µM (PC3 cells): 54.8% | percent inhibition of cell viability at 20 µM (PC3 cells): 65.1% | percent inhibition of cell viability at 4 µM (MCF-7 cells): 59.4% | percent inhibition of cell viability at 20 µM (MCF-7 cells): 67%

O=C(Nc1ccc(-c2ccccc2)cn1)c1cccnc1 [Compound 10, N-(5-phenylpyridin-2-yl)pyridine-3-carboxamide]
percent inhibition of cell viability at 4 µM (A2780 cells): 92.7% | percent inhibition of cell viability at 20 µM (A2780 cells): 95.2% | percent inhibition of cell viability at 4 µM (PC3 cells): 71.8% | percent inhibition of cell viability at 20 µM (PC3 cells): 87.3% | percent inhibition of cell viability at 4 µM (MCF-7 cells): 61.4% | percent inhibition of cell viability at 20 µM (MCF-7 cells): 86.4%

O=C(Nc1ccc(-c2ccco2)cn1)c1cncnc1 [Compound 20, N-[5-(furan-2-yl)pyridin-2-yl]pyrimidine-5-carboxamide]
percent inhibition of cell viability at 4 µM (A2780 cells): 84% | percent inhibition of cell viability at 20 µM (A2780 cells): 91.1% | percent inhibition of cell viability at 4 µM (PC3 cells): 59.9% | percent inhibition of cell viability at 20 µM (PC3 cells): 69.4% | percent inhibition of cell viability at 4 µM (MCF-7 cells): 56.3% | percent inhibition of cell viability at 20 µM (MCF-7 cells): 61.2%

Cc1ncc(C(=O)Nc2ncc(-c3cccc(NC4CC4)c3)cc2F)cn1 [Compound 68, N-{5-[3-(cyclopropylamino)phenyl]-3-fluoropyridin-2-yl}-2-methylpyrimidine-5-carboxamide]
percent inhibition of cell viability at 4 µM (A2780 cells): 87.1% | percent inhibition of cell viability at 20 µM (A2780 cells): 89% | percent inhibition of cell viability at 4 µM (PC3 cells): 58.4% | percent inhibition of cell viability at 20 µM (PC3 cells): 64.4% | percent inhibition of cell viability at 4 µM (MCF-7 cells): 54.3% | percent inhibition of cell viability at 20 µM (MCF-7 cells): 59.3%

Cc1ncc(C(=O)Nc2ccc(-c3cc(Cl)cc(N4CCN(C)CC4)c3)cn2)cn1 [Compound 47, N-{5-[3-chloro-5-(4-methylpiperazin-1-yl)phenyl]pyridin-2-yl}-2-methylpyrimidine-5-carboxamide]
percent inhibition of cell viability at 4 µM (A2780 cells): 88.7% | percent inhibition of cell viability at 20 µM (A2780 cells): 95.5% | percent inhibition of cell viability at 4 µM (PC3 cells): 63.2% | percent inhibition of cell viability at 20 µM (PC3 cells): 78.6% | percent inhibition of cell viability at 4 µM (MCF-7 cells): 40.6% | percent inhibition of cell viability at 20 µM (MCF-7 cells): 64.6%

O=C(Nc1ccc(-c2cccc(C3COC3)c2)cn1)c1cncnc1 [Compound 41, N-{5-[3-(oxetan-3-yl)phenyl]pyridin-2-yl}pyrimidine-5-carboxamide]
percent inhibition of cell viability at 4 µM (A2780 cells): 74.7% | percent inhibition of cell viability at 20 µM (A2780 cells): 88.9% | percent inhibition of cell viability at 4 µM (PC3 cells): 74.5% | percent inhibition of cell viability at 20 µM (PC3 cells): 80.9%

O=C(Nc1ccc(-c2cccnc2)cn1)c1cncnc1 [Compound 14, N-(3,3′-bipyridin-6-yl)pyrimidine-5-carboxamide]
percent inhibition of cell viability at 4 µM (A2780 cells): 51.2% | percent inhibition of cell viability at 20 µM (A2780 cells): 71.4% | percent inhibition of cell viability at 4 µM (PC3 cells): 23.9% | percent inhibition of cell viability at 20 µM (PC3 cells): 43.3% | percent inhibition of cell viability at 4 µM (MCF-7 cells): 19.1% | percent inhibition of cell viability at 20 µM (MCF-7 cells): 30.3%

CNC(=O)c1cccc(-c2ccc(NC(=O)c3cncnc3)nc2)c1 [Compound 17, N-{5-[3-(methylcarbamoyl)phenyl]pyridin-2-yl}pyrimidine-5-carboxamide]
percent inhibition of cell viability at 4 µM (A2780 cells): 84.5% | percent inhibition of cell viability at 20 µM (A2780 cells): 91.7% | percent inhibition of cell viability at 4 µM (PC3 cells): 62.8% | percent inhibition of cell viability at 20 µM (PC3 cells): 81.7% | percent inhibition of cell viability at 4 µM (MCF-7 cells): 56.3% | percent inhibition of cell viability at 20 µM (MCF-7 cells): 75.5%

Cc1ncc(C(=O)Nc2ccc(-c3cccc(NC4CCNC4)c3)cn2)cn1 (centres unmarked) [Compound 55, 2-methyl-N-{5-[3-(pyrrolidin-3-ylamino)phenyl]pyridin-2-yl}pyrimidine-5-carboxamide]
percent inhibition of cell viability at 4 µM (A2780 cells): 80.3% | percent inhibition of cell viability at 20 µM (A2780 cells): 87.4% | percent inhibition of cell viability at 4 µM (PC3 cells): 81.1% | percent inhibition of cell viability at 20 µM (PC3 cells): 82.2%

O=C(Nc1ccc(-c2cccc(C3COC3)c2)cn1)c1cccnc1 [Compound 43, N-{5-[3-(oxetan-3-yl)phenyl]pyridin-2-yl}pyridine-3-carboxamide]
percent inhibition of cell viability at 4 µM (A2780 cells): 82.6% | percent inhibition of cell viability at 20 µM (A2780 cells): 86.7% | percent inhibition of cell viability at 4 µM (PC3 cells): 75.1% | percent inhibition of cell viability at 20 µM (PC3 cells): 84.5%

Cc1ncc(C(=O)Nc2ccc(-c3cccc(C4COC4)c3)cn2)cn1 [Compound 42, 2-methyl-N-{5-[3-(oxetan-3-yl)phenyl]pyridin-2-yl}pyrimidine-5-carboxamide]
percent inhibition of cell viability at 4 µM (A2780 cells): 85% | percent inhibition of cell viability at 20 µM (A2780 cells): 85.2% | percent inhibition of cell viability at 4 µM (PC3 cells): 80.3% | percent inhibition of cell viability at 20 µM (PC3 cells): 84.5%

CC(C)(C)c1cccc(-c2ccc(NC(=O)c3cncnc3)nc2)c1 [Compound 46, N-[5-(3-tert-butylphenyl)pyridin-2-yl]pyrimidine-5-carboxamide]
percent inhibition of cell viability at 4 µM (A2780 cells): 71.1% | percent inhibition of cell viability at 20 µM (A2780 cells): 71.8% | percent inhibition of cell viability at 4 µM (PC3 cells): 68.5% | percent inhibition of cell viability at 20 µM (PC3 cells): 67.6%

O=C(Nc1ccc(-c2cccc(OC3CC3)c2)cn1)c1cccnc1 [Compound 28, N-{5-[3-(cyclopropyloxy)phenyl]pyridin-2-yl}pyridine-3-carboxamide]
percent inhibition of cell viability at 4 µM (A2780 cells): 77% | percent inhibition of cell viability at 20 µM (A2780 cells): 74.2% | percent inhibition of cell viability at 4 µM (PC3 cells): 58.9% | percent inhibition of cell viability at 20 µM (PC3 cells): 65.6%

Cc1ccc(C(=O)Nc2ccc(-c3cccc(NC4CC4)c3)cn2)cn1 [Compound 33, N-{5-[3-(cyclopropylamino)phenyl]pyridin-2-yl}-6-methylpyridine-3-carboxamide]
percent inhibition of cell viability at 4 µM (A2780 cells): 69.5% | percent inhibition of cell viability at 20 µM (A2780 cells): 74.8% | percent inhibition of cell viability at 4 µM (PC3 cells): 56.1% | percent inhibition of cell viability at 20 µM (PC3 cells): 54.9%

NCCNc1ncc(C(=O)Nc2ccc(-c3cccc(OC4CC4)c3)cn2)cn1 [Compound 58, 2-[(2-aminoethyl)amino]-N-[5-(3-cyclopropyloxyphenyl)pyridin-2-yl]pyrimidine-5-carboxamide]
percent inhibition of cell viability at 4 µM (A2780 cells): 86.6% | percent inhibition of cell viability at 20 µM (A2780 cells): 91.1% | percent inhibition of cell viability at 4 µM (PC3 cells): 77.7% | percent inhibition of cell viability at 20 µM (PC3 cells): 93.6%
